According to patent US20090156646A1, “PYRIDYLPHENOL COMPOUND AND USE THEREOF” (TAKEDA PHARMACEUTICAL COMPANY LIMITED, priority 2005, published 2009):
Counter-ions that a name gives are not always drawn.

biological target: T1, human metastin receptor hOT7T175 (Homo sapiens, UniProt Q969F8, L364H); assay: binding inhibiting activity: 125I-metastin (40-54) binding to cell membrane fraction of h175 KB34 cells; details: room temperature 60 minutes, read-out: binding inhibiting activity, represented by the IC50 value
T1 construct: encoding the entire length of human metastin receptor hOT7T175; expressed in transfected cells; host or cells: CHO/dhFr- cells (ATCC #CRL-9096) stably transfected with pAKKO-hOT7T175; clone h175-16 was used as whole cells for FLIPR
T1 sequence (Q969F8 whole entry L364H): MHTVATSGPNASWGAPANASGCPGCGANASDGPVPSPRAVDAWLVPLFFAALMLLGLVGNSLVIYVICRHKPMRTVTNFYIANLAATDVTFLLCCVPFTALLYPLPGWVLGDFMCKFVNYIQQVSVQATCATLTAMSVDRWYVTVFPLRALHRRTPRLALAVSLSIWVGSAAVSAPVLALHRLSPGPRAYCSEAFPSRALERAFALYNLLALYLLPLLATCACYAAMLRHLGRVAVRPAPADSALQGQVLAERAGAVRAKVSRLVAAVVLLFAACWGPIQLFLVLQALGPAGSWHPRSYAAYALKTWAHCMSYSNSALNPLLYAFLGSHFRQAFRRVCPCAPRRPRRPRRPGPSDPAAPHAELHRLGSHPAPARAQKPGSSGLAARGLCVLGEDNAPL
Experimental: cDNA fragments (SEQ ID NO: 2) encoding the entire length of human metastin receptor hOT7T175 were incorporated into expression vector pAKKO1.11H to produce animal cell expression plasmids pAKKO-hOT7T175. CHO/dhFr-cells (ATCC, #CRL-9096) were seeded onto 6 cm culture dishes (Becton Dickinson) at a density of 0.3×10^6 cells/dish, and cultured in the conditions of 48 hours, 37° C. and 5% CO2. 5 μg pAKKO-hOT7T175 plasmid DNA was transfected to the resultant cells by a known method (described in Example 3 of WO 00/24890) using the Cellphect Transfection Kit (Amersham, #27-9268-01). The DNA-transfected cells were cultured in the Dulbecco's modified Eagle medium (DMEM) (Sigma, #D6046) containing 10% dialyzed FBS (Biowest, #S180D), 1× Non-Essential Amino Acid (Invitrogen, #11140-050) and 50 μg/ml Gentamycin (Invitrogen, #15750-060; and cell strains stably expressing the plasmid genes were selected. The obtained 41 clones were treated with the FLIPR assay (in accordance with the method described in Example 3 of WO 00/24890), and the reactivity to the human metastin […] (Nos. 40 to 54 of the human metastin sequence; Peptide Institute, Inc., #4389-v) was evaluated. In the end, h175 KB34 cell strains were selected. By substantially the same method, h175-16 cell strains were also produced.
The h175 KB34 cells were cultured to be on the stage of 40-50% confluency using a cell factory (Nunc, #164327), and then cells were recovered in the following method.
First, the medium was disposed, and the cells were washed twice with 200 ml EDTA/PBS(−). Another 200 ml of EDTA/PBS(−) was added, and the cells were kept still for 20 minutes at room temperature until being peeled off. The cells were recovered into four 50 ml tubes (Becton Dickinson, #352070), and centrifuged (2,000 rpm, 10 min., 4° C.) by a reduced performance centrifuge (TOMY, RL-101). The supernatant was disposed, and the pellets in the four tubes were each suspended with 10 ml EDTA/PBS(−) and collected into one tube (Becton Dickinson, #352070). The pellet was further centrifuged (2,000 rpm, 10 min., 4° C.). The resultant pellet was suspended with 20 ml ice-cooled homogenizer buffer [10 mM NaHCO3, 2 mM EGTA, 0.2 mM magnesium acetate, 10 μg/ml Leupeptin (Peptide Institute, Inc., #4041), 10 μg/ml E-64 (Peptide Institute, Inc., # 4096), 100 μg/ml o-phenanthroline (Dojindo Laboratories), 90 μg/ml PMSF (Wako Pure Chemical Industries, Ltd.), 10 μg/ml Pepstatin A (Peptide Institute, Inc., #4397), pH7.3]. The cell suspension was homogenized 3 times, each for 30 seconds, using a Polytron homogenizer. The resultant homogenate was centrifuged (2,500 rpm, 10 min, 4° C.) using a high performance refrigerated centrifuge (Hitachi, Ltd., CR26H). The supernatant was recovered into a super-centrifuge tube, and super-centrifuged (30,000 rpm, 60 min, 4° C.) using a super-centrifuge (Hitachi, Ltd., SCP70H). 3 ml homogenizer buffer was added to the resultant pellet, and the pellet was suspended by pipetting. 3 ml glycerol (Wako Pure Chemical Industries, Ltd.) was added to the resultant suspension and diluted 2-folds. The resultant substance was used as a cell membrane fraction of the h175 KB34 cells. Each […] of the membrane fraction was put into a 1.5 ml tube (Eppendorf, #0030120.086), stored in a freezer (−30 C) so as not to be frozen, and used for a binding assay.
An assay buffer was prepared on the day of the test by adding, to each 100 ml of an assay basic buffer [20 mM Tris, 2.5 mM Magnesium Acetate, 2 mM EGTA, pH 7.4], 1 mg Leupeptin (Peptide Institute, Inc., 4041), 1 mg E-64 (Peptide Institute, Inc., 4096), 10 mg o-phenanthroline (Dojindo Laboratories), 9 mg PMSF (Wako Pure Chemical Industries, Ltd.) and 1 mg Pepstatin A (Peptide Institute, Inc., 4397). The prepared assay buffer was stored at 4° C. until being used. When the measurement was to be performed with no BSA, the above-described assay buffer was used. […]

IC50 | SMILES
≤ 10 µM | N#Cc1c(-c2cccc(NC(=O)[C@@H]3CCCC[C@H]3N)c2)cc(-c2ccc(F)cc2O)nc1NC(=O)c1ccco1 (racemic) [Example 277, N-{4-[3-({[(1SR,2SR)-2-aminocyclohexyl]carbonyl}amino)phenyl]-3-cyano-6-(4-fluoro-2-hydroxyphenyl)pyridin-2-yl}-2-furamide hydrochloride]
≤ 10 µM | N#Cc1c(-c2cccc(NC(=O)CCN)c2)cc(-c2ccccc2O)nc1NC(=O)c1ccccc1 [Example 31, N-[4-(3-(β-alanylamino)phenyl)-3-cyano-6-(2-hydroxyphenyl)pyridin-2-yl]benzamide trifluoroacetate]
≤ 10 µM | CN(C(=O)CN)c1cccc(-c2cc(-c3ccccc3O)nc(NC(=O)c3cccs3)c2C#N)c1 [Example 41, N-[3-cyano-4-{3-[glycyl(methyl)amino]phenyl}-6-(2-hydroxyphenyl)pyridin-2-yl]thiophene-2-carboxamide dihydrochloride]
≤ 10 µM | N#Cc1c(-c2cc(NC(=O)CCN)ccc2Cl)cc(-c2ccccc2O)nc1NC(=O)c1cccs1 [Example 42, N-{4-[5-(β-alanylamino)-2-chlorophenyl]-3-cyano-6-(2-hydroxyphenyl)pyridin-2-yl}thiophene-2-carboxamide dihydrochloride]
≤ 10 µM | N#Cc1c(-c2cccc(NC(=O)CCN)c2)cc(-c2cc(Cl)ccc2O)nc1NC(=O)c1cccs1 [Example 46, N-{4-[3-(β-alanylamino)phenyl]-6-(5-chloro-2-hydroxyphenyl)-3-cyanopyridin-2-yl}thiophene-2-carboxamide trifluoroacetate]
≤ 10 µM | COc1ccc(-c2cc(-c3cccc(NC(=O)CCN)c3)c(C#N)c(NC(=O)c3ccccc3)n2)c(O)c1 [Example 50, N-{4-[3-(β-alanylamino)phenyl]-3-cyano-6-(2-hydroxy-4-methoxyphenyl)pyridin-2-yl}benzamide trifluoroacetate]
≤ 10 µM | N#Cc1c(-c2cccc(NC(=O)CCN)c2)cc(-c2ccc(Cl)cc2O)nc1NC(=O)c1ccccc1 [Example 51, N-{4-[3-(β-alanylamino)phenyl]-6-(4-chloro-2-hydroxyphenyl)-3-cyanopyridin-2-yl}benzamide trifluoroacetate]
≤ 10 µM | N#Cc1c(-c2cccc(NC(=O)CCN)c2)cc(-c2ccc(Cl)cc2O)nc1NC(=O)c1cccs1 [Example 56, N-{4-[3-(β-alanylamino)phenyl]-6-(4-chloro-2-hydroxyphenyl)-3-cyanopyridin-2-yl}thiophene-2-carboxamide trifluoroacetate]
≤ 10 µM | N#Cc1c(-c2cccc(NC(=O)CCN)c2)cc(-c2ccc(F)cc2O)nc1NC(=O)c1cccs1 [Example 58, N-{4-[3-(β-alanylamino)phenyl]-3-cyano-6-(4-fluoro-2-hydroxyphenyl)pyridin-2-yl}thiophene-2-carboxamide hydrochloride]
≤ 10 µM | N#Cc1c(-c2cccc(C(=O)NCCN)c2)cc(-c2ccc(F)cc2O)nc1NC(=O)c1ccco1 [Example 66, N-[4-(3-{[(2-aminoethyl)amino]carbonyl}phenyl)-3-cyano-6-(4-fluoro-2-hydroxyphenyl)pyridin-2-yl]-2-furamide hydrochloride]
≤ 10 µM | N#Cc1c(-c2cccc(NC(=O)[C@@H](N)Cc3cnc[nH]3)c2)cc(-c2ccc(Cl)cc2O)nc1NC(=O)c1ccco1 [Example 243, N-{3-[6-(4-chloro-2-hydroxyphenyl)-3-cyano-2-(2-furoylamino)pyridin-4-yl]phenyl}-L-histidinamide dihydrochloride]
≤ 10 µM | N#Cc1c(-c2cccc(NC(=O)CCN)c2)cc(-c2ccc(Cl)cc2O)nc1NC(=O)c1ccno1 [Example 251, N-[4-[3-(β-alanylamino)phenyl]-6-(4-chloro-2-hydroxyphenyl)-3-cyanopyridin-2-yl]isoxazole-5-carboxamide hydrochloride]
≤ 10 µM | N#Cc1c(-c2cccc(NC(=O)[C@H](N)Cc3cnc[nH]3)c2)cc(-c2ccc(Cl)cc2O)nc1NC(=O)c1ccco1 [Example 253, N-{3-[6-(4-chloro-2-hydroxyphenyl)-3-cyano-2-(2-furoylamino)pyridin-4-yl]phenyl}-D-histidinamide dihydrochloride]
≤ 10 µM | N#Cc1c(-c2cccc(NC(=O)CCN)c2)cc(-c2ccc(Cl)cc2O)nc1NC(=O)c1ccoc1 [Example 254, N-[4-[3-(β-alanylamino)phenyl]-6-(4-chloro-2-hydroxyphenyl)-3-cyanopyridin-2-yl]-3-furamide hydrochloride]
≤ 10 µM | COc1ccc(C(=O)Nc2nc(-c3ccc(Cl)cc3O)cc(-c3cccc(NC(=O)CCN)c3)c2C#N)c(OC)c1 [Example 255, N-[4-[3-(β-alanylamino)phenyl]-6-(4-chloro-2-hydroxyphenyl)-3-cyanopyridin-2-yl]-2,4-dimethoxybenzamide dihydrochloride]
≤ 10 µM | N#Cc1c(-c2cccc(NC(=O)[C@H](N)Cc3c[nH]cn3)c2)cc(-c2ccc(F)cc2O)nc1NC(=O)c1ccco1 [Example 261, N-{3-[3-cyano-6-(4-fluoro-2-hydroxyphenyl)-2-(2-furoylamino)pyridin-4-yl]phenyl}-D-histidinamide hydrochloride]
≤ 10 µM | C[C@H](N)CNC(=O)c1cccc(-c2cc(-c3ccc(Cl)cc3O)nc(NC(=O)c3ccno3)c2C#N)c1 [Example 268, N-[4-[3-({[(2S)-2-aminopropyl]amino}carbonyl)phenyl]-6-(4-chloro-2-hydroxyphenyl)-3-cyanopyridin-2-yl]isoxazole-5-carboxamide hydrochloride]
≤ 10 µM | N#Cc1c(-c2ccnc(C(=O)NCCN)c2)cc(-c2ccccc2O)nc1NC(=O)c1ccco1 [Example 272, N-(2-aminoethyl)-3′-cyano-2′-(2-furoylamino)-6′-(2-hydroxyphenyl)-4,4′-bipyridine-2-carboxamide dihydrochloride]
≤ 10 µM | CC(N)CC(=O)Nc1cccc(-c2cc(-c3ccc(Cl)cc3O)nc(NC(=O)c3cccn3C)c2C#N)c1 (stereo not shown) [Example 274, N-[4-{3-[(3-aminobutanoyl)amino]phenyl}-6-(4-chloro-2-hydroxyphenyl)-3-cyanopyridin-2-yl]-1-methyl-1H-pyrrole-2-carboxamide hydrochloride]
≤ 10 µM | COc1c(NC(=O)OC(C)(C)C)cccc1-c1cc(-c2ccccc2O)nc(NC(=O)c2ccco2)c1C#N [Example 275, tert-butyl{3-[3-cyano-2-(2-furoylamino)-6-(2-hydroxyphenyl)pyridin-4-yl]-2-methoxyphenyl}carbamate]
≤ 10 µM | COc1c(NC(=O)CCN)cccc1-c1cc(-c2ccccc2O)nc(NC(=O)c2ccco2)c1C#N [Example 276, N-[4-[3-(β-alanylamino)-2-methoxyphenyl]-3-cyano-6-(2-hydroxyphenyl)pyridin-2-yl]-2-furamide hydrochloride]
≤ 10 µM | N#Cc1c(N2CCCC(C(=O)NCCN)C2)cc(-c2ccccc2O)nc1NC(=O)c1ccco1 (stereo not shown) [Example 288, N-(2-aminoethyl)-1-[3-cyano-2-(2-furoylamino)-6-(2-hydroxyphenyl)pyridin-4-yl]piperidine-3-carboxamide hydrochloride]
